Test results: patent US6274715A, “Tricyclic erythromycin derivatives” (priority 1997, dated 2001)
In brackets after ≈: the same amount, converted by molar mass.

What was measured:
Format in all cases: cell-based
[1] = test system: STAPHYLOCOCCUS AUREUS ATCC 6538P; assay: In vitro antibacterial activity, MIC, BHI agar dilution; settings: S. aureus ATCC 6538P, 35-37° C., 20 to 24 hours, unit assumed
[2] = test system: STAPHYLOCOCCUS AUREUS A5177; assay: as above; settings: S. aureus A5177, unit assumed
[3] = test system: STAPHYLOCOCCUS AUREUS A-5278; assay: as above; settings: S. aureus A-5278, unit assumed
[4] = test system: STAPHYLOCOCCUS AUREUS CMX 642A; assay: as above; settings: S. aureus CMX 642A, unit assumed
[5] = test system: STAPHYLOCOCCUS AUREUS NCTC10649M; assay: as above; settings: S. aureus NCTC10649M, unit assumed
[6] = test system: STAPHYLOCOCCUS AUREUS CMX 553; assay: as above; settings: S. aureus CMX 553, unit assumed
[7] = test system: STAPHYLOCOCCUS AUREUS 1775; assay: as above; settings: S. aureus 1775, unit assumed
[8] = test system: STAPHYLOCOCCUS EPIDERMIDIS 3519; settings: S. epidermidis 3519; BHI agar; unit assumed
[9] = test system: EN[…] ATCC 8043; assay: In vitro antibacterial activity, MIC, BHI agar dilution; settings: E. faecium ATCC 8043, unit assumed
In short: (§1)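 BHI agar dilution: twelve plates with successive compound dilutions, inoculated by replicator with 1:100 culture dilutions (1:10 for slow growers such as Micrococcus and Streptococcus), 20 to 24 hours at 35-37° C. MIC was the lowest concentration giving no growth, slight haze or sparse isolated colonies versus drug-free control; erythromycin A as class reference.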

[10] = test system: M[…] ATCC 4698; assay: as above; settings: M. luteus ATCC 4698, unit assumed
In short: as §1

[11] = test system: M[…] ATCC 9341; assay: as above; settings: M. luteus ATCC 9341, unit assumed
In short: as §1

[12] = test system: STR[…] 508; assay: as above; settings: S. agalactiae CMX 508, unit assumed
In short: as §1

[13] = test system: STREPTOCOCCUS BOVIS A-5169; assay: as above; settings: S. bovis A-5169, unit assumed
[14] = test system: STREPTOCOCCUS PYOGENES EES61; assay: as above; settings: S. pyogenes EES61, unit assumed
[15] = test system: STREPTOCOCCUS PYOGENES 930; assay: as above; settings: S. pyogenes 930, unit assumed
[16] = test system: STREPTOCOCCUS PYOGENES PIU 2548; assay: as above; settings: S. pyogenes PIU 2548, unit assumed
[17] = test system: ESCHERICHIA COLI JUHL; settings: E. coli JUHL; BHI agar; unit assumed
[18] = test system: ESCHERICHIA COLI SS; assay: In vitro antibacterial activity, MIC, BHI agar dilution; settings: E. coli SS, unit assumed
[19] = test system: ESCHERICHIA COLI DC-2; assay: as above; settings: E. coli DC-2, unit assumed
[20] = test system: ESCHERICHIA COLI H560; assay: as above; settings: E. coli H560, unit assumed
[21] = test system: ESCHERICHIA COLI KNK 437; settings: E. coli KNK 437; BHI agar; unit assumed
[22] = test system: ENTEROBACTER AEROGENES ATCC 13048; assay: In vitro antibacterial activity, MIC, BHI agar dilution; settings: E. aerogenes ATCC 13048, unit assumed
[23] = test system: KLEBSIELLA PNEUMONIAE ATCC 8045; assay: as above; settings: K. pneumoniae ATCC 8045, unit assumed
[24] = test system: PROVIDENCIA STUARTII CMX 640; settings: P. stuartii CMX 640; BHI agar; unit assumed
[25] = test system: PSEUDOMONAS AERUGINOSA BMH10; assay: In vitro antibacterial activity, MIC, BHI agar dilution; settings: P. aeruginosa BMH10, unit assumed
[26] = test system: PSEUDOMONAS AERUGINOSA 5007; assay: as above; settings: P. aeruginosa 5007, unit assumed
[27] = test system: PSEUDOMONAS AERUGINOSA K799/WT; assay: as above; settings: P. aeruginosa K799/WT, unit assumed
[28] = test system: PSEUDOMONAS AERUGINOSA K799/61; assay: as above; settings: P. aeruginosa K799/61, unit assumed
[29] = test system: PSEUDOMONAS CEPACIA 296I; assay: as above; settings: P. cepacia 296I, unit assumed
[30] = test system: PSEUDOMONAS AERUGINOSA DPHD-5263; assay: as above; settings: P. aeruginosa DPHD-5263, unit assumed
[31] = test system: PSEUDOMONAS AERUGINOSA DPHD-2862; assay: as above; settings: P. aeruginosa DPHD-2862, unit assumed
[32] = test system: CANDIDA ALBICANS CCH 442; assay: as above; settings: C. albicans CCH 442, unit assumed
[33] = test system: MYCOBACTERIUM SMEGMATIS ATCC 114; assay: as above; settings: M. smegmatis ATCC 114, unit assumed

## CC[C@H]1OC(=O)[C@H](C)C(=O)[C@H](C)[C@@H](O[C@@H]2O[C@H](C)C[C@H](N(C)C)[C@H]2O)[C@](C)(OC)C[C@@H](C)C2=NC3CCCC3N3C(=O)O[C@@]1(C)[C@H]3[C@H]2C (stereo partly drawn) [Example 107]
[1]
  MIC: 0.78 µg/mL (≈ 1.15 µM)
[2]
  MIC: 0.78 µg/mL (≈ 1.15 µM)
[3]
  MIC: > 100 µg/mL
[4]
  MIC: 0.78 µg/mL (≈ 1.15 µM)
[5]
  MIC: 0.78 µg/mL (≈ 1.15 µM)
[6]
  MIC: 0.78 µg/mL (≈ 1.15 µM)
[7]
  MIC: > 100 µg/mL
[8]
  MIC: 0.78 µg/mL (≈ 1.15 µM)
[9]
  MIC: 0.1 µg/mL (≈ 0.148 µM)
[10]
  MIC: 0.39 µg/mL (≈ 0.575 µM)
[11]
  MIC: 0.05 µg/mL (≈ 0.0738 µM)
[12]
  MIC: 0.02 µg/mL (≈ 0.0295 µM)
[13]
  MIC: 0.01 µg/mL (≈ 0.0148 µM)
[14]
  MIC: 0.02 µg/mL (≈ 0.0295 µM)
[15]
  MIC: > 100 µg/mL
[16]
  MIC: 0.39 µg/mL (≈ 0.575 µM)
[17]
  MIC: > 100 µg/mL
[18]
  MIC: 0.39 µg/mL (≈ 0.575 µM)
[19]
  MIC: > 100 µg/mL
[20]
  MIC: 50 µg/mL (≈ 73.8 µM)
[21]
  MIC: > 100 µg/mL
[22]
  MIC: > 100 µg/mL
[23]
  MIC: > 100 µg/mL
[24]
  MIC: > 100 µg/mL
[25]
  MIC: > 100 µg/mL
[26]
  MIC: > 100 µg/mL
[27]
  MIC: > 100 µg/mL
[28]
  MIC: 6.2 µg/mL (≈ 9.15 µM)
[29]
  MIC: > 100 µg/mL
[30]
  MIC: > 100 µg/mL
[31]
  MIC: > 100 µg/mL
[32]
  MIC: > 100 µg/mL
[33]
  MIC: 1.56 µg/mL (≈ 2.3 µM)

## CC[C@H]1OC(=O)[C@H](C)C(=O)[C@H](C)[C@@H](O[C@@H]2O[C@H](C)C[C@H](N(C)C)[C@H]2O)[C@](C)(OC)C[C@@H](C)C2=NC3CNCC3N3C(=O)O[C@@]1(C)[C@H]3[C@H]2C (stereo partly drawn) [Example 109]
[1]
  MIC: 0.39 µg/mL (≈ 0.574 µM)
[2]
  MIC: 0.39 µg/mL (≈ 0.574 µM)
[3]
  MIC: > 100 µg/mL
[4]
  MIC: 0.39 µg/mL (≈ 0.574 µM)
[5]
  MIC: 0.39 µg/mL (≈ 0.574 µM)
[6]
  MIC: 0.78 µg/mL (≈ 1.15 µM)
[7]
  MIC: > 100 µg/mL
[8]
  MIC: 0.39 µg/mL (≈ 0.574 µM)
[9]
  MIC: 0.1 µg/mL (≈ 0.147 µM)
[10]
  MIC: 0.2 µg/mL (≈ 0.295 µM)
[11]
  MIC: 0.05 µg/mL (≈ 0.0737 µM)
[12]
  MIC: 0.1 µg/mL (≈ 0.147 µM)
[13]
  MIC: 0.05 µg/mL (≈ 0.0737 µM)
[14]
  MIC: 0.05 µg/mL (≈ 0.0737 µM)
[15]
  MIC: > 100 µg/mL
[16]
  MIC: 0.78 µg/mL (≈ 1.15 µM)
[17]
  MIC: 25 µg/mL (≈ 36.8 µM)
[18]
  MIC: 0.2 µg/mL (≈ 0.295 µM)
[19]
  MIC: 12.5 µg/mL (≈ 18.4 µM)
[20]
  MIC: 6.2 µg/mL (≈ 9.13 µM)
[21]
  MIC: 25 µg/mL (≈ 36.8 µM)
[22]
  MIC: 25 µg/mL (≈ 36.8 µM)
[23]
  MIC: 25 µg/mL (≈ 36.8 µM)
[24]
  MIC: > 100 µg/mL
[25]
  MIC: 50 µg/mL (≈ 73.7 µM)
[26]
  MIC: > 100 µg/mL
[27]
  MIC: > 100 µg/mL
[28]
  MIC: 0.39 µg/mL (≈ 0.574 µM)
[29]
  MIC: > 100 µg/mL
[30]
  MIC: > 100 µg/mL
[31]
  MIC: > 100 µg/mL
[32]
  MIC: > 100 µg/mL
[33]
  MIC: 3.1 µg/mL (≈ 4.57 µM)

## CC[C@H]1OC(=O)[C@H](C)C(=O)[C@H](C)[C@@H](O[C@@H]2O[C@H](C)C[C@H](N(C)C)[C@H]2O)[C@](C)(OC)C[C@@H](C)C2=NC3CN(C)CC3N3C(=O)O[C@@]1(C)[C@H]3[C@H]2C (stereo partly drawn) [Example 114]
[1]
  MIC: 1.56 µg/mL (≈ 2.25 µM)
[2]
  MIC: 0.78 µg/mL (≈ 1.13 µM)
[3]
  MIC: > 100 µg/mL
[4]
  MIC: 1.56 µg/mL (≈ 2.25 µM)
[5]
  MIC: 1.56 µg/mL (≈ 2.25 µM)
[6]
  MIC: 1.56 µg/mL (≈ 2.25 µM)
[7]
  MIC: > 100 µg/mL
[8]
  MIC: 1.56 µg/mL (≈ 2.25 µM)
[9]
  MIC: 0.2 µg/mL (≈ 0.289 µM)
[10]
  MIC: 1.56 µg/mL (≈ 2.25 µM)
[11]
  MIC: 0.1 µg/mL (≈ 0.144 µM)
[12]
  MIC: 0.1 µg/mL (≈ 0.144 µM)
[13]
  MIC: 0.02 µg/mL (≈ 0.0289 µM)
[14]
  MIC: 0.05 µg/mL (≈ 0.0722 µM)
[15]
  MIC: > 100 µg/mL
[16]
  MIC: 1.56 µg/mL (≈ 2.25 µM)
[17]
  MIC: 100 µg/mL (≈ 144 µM)
[18]
  MIC: 0.78 µg/mL (≈ 1.13 µM)
[19]
  MIC: 100 µg/mL (≈ 144 µM)
[20]
  MIC: 50 µg/mL (≈ 72.2 µM)
[21]
  MIC: 100 µg/mL (≈ 144 µM)
[22]
  MIC: 100 µg/mL (≈ 144 µM)
[23]
  MIC: > 100 µg/mL
[24]
  MIC: > 100 µg/mL
[25]
  MIC: > 100 µg/mL
[26]
  MIC: > 100 µg/mL
[27]
  MIC: > 100 µg/mL
[28]
  MIC: 6.2 µg/mL (≈ 8.95 µM)
[29]
  MIC: > 100 µg/mL
[30]
  MIC: > 100 µg/mL
[31]
  MIC: > 100 µg/mL
[32]
  MIC: > 100 µg/mL
[33]
  MIC: 6.2 µg/mL (≈ 8.95 µM)
